This is an account of results in patent US8518944B2, “Compounds as casein kinase inhibitors” (Pfizer Inc., priority 2009, dated 2013).

In one experiment the target is CK1δ (Homo sapiens, UniProt P48730). The experiment is described as follows: CK1δ kinase assay (Kinase-Glo luminescence). It counts as biochemical. The conditions noted are these: ATP 10 μM, CK1δ enzyme 2 nM, peptide substrate 42 μM, 25° C., 85 minutes; values marked * are geometric mean of 5-16 determinations; read-out: CKIδ IC50 (nM), geometric mean of 2-4 determinations. How it is done:
The CK1δ kinase assay was performed in a standard buffer containing ATP at 10 μM, CK1δ enzyme at 2 nM, and the peptide substrate PLSRTLpSVASLPGL at 42 μM. The reaction was incubated at 25° C. for 85 minutes. Enzyme inhibition was performed in the presence of either 1 μL of CK1δ inhibitor, or 4% DMSO. Detection of luminescent output on a PerkinElmer EnVision plate reader (PerkinElmer, Waltham, Mass.) was performed as described for the Kinase-Glo Assay (Promega).

Another experiment addresses CK1ε wild type enzyme (Homo sapiens, UniProt P49674). The experiment is described as follows: CK1ε kinase assay (Kinase-Glo luminescence). The experiment is classed as biochemical. The conditions noted are these: ATP 10 μM, CK1ε wild type enzyme 2.5 nM, peptide substrate 42 μM, 25° C., 70 minutes; values marked * are geometric mean of 5-16 determinations; read-out: CKIε IC50 (nM), geometric mean of 2-4 determinations. The procedure:
The CK1ε kinase assay was performed in a standard buffer containing ATP at 10 μM, CK1ε wild type enzyme at 2.5 nM, and 42 μM concentration of the peptide substrate PLSRTLpSVASLPGL (Flotow et al., 1990). The reaction was incubated at 25° C. for 70 minutes. Enzyme inhibition was measured in the presence of 1 μL of the CK1ε inhibitor, or 4% DMSO. Detection was carried out as described for the Kinase-Glo Assay (Promega). Luminescent output was measured on the PerkinElmer EnVision plate reader (PerkinElmer, Waltham, Mass.).
Background: Kinase-Glo measures the ATP left after a reaction by luminescence.

Structures can show the parent of a compound that is named as a salt.

Chain of CK1ε wild type enzyme (P49674 whole entry): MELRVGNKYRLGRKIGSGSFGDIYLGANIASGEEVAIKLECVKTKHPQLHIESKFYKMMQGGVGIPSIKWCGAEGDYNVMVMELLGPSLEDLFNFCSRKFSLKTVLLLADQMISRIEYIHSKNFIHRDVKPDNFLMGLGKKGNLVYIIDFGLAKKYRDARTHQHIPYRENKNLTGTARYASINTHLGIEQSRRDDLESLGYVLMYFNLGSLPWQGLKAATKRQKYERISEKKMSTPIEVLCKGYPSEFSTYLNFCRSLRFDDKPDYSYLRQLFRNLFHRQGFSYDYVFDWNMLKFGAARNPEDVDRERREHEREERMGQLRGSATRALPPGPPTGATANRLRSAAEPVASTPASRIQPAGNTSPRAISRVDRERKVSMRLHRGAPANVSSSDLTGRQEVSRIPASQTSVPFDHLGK
Chain of CK1δ (P48730 whole entry): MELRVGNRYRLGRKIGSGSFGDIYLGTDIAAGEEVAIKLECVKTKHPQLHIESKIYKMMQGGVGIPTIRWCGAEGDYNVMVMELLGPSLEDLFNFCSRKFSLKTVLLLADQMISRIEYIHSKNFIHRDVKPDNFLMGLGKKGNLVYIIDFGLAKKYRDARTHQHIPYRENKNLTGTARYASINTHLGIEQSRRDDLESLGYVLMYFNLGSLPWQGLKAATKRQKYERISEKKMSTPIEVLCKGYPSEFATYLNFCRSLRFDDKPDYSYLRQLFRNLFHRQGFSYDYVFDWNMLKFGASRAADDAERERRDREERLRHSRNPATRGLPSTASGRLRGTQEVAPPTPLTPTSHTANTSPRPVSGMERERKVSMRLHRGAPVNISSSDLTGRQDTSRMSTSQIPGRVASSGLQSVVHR

With `Cc1cc(CN2CCC(n3cnc(-c4ccc(F)cc4)c3-c3ccnc(N)n3)C2)no1` (stereo not drawn) [Example 33, 4-[4-(4-fluorophenyl)-1-{1-[(5-methylisoxazol-3-yl)methyl]pyrrolidin-3-yl}-1H-imidazol-5-yl]pyrimidin-2-amine], the IC50 – broadly, the concentration needed to halve the response being measured – on CK1δ is 55.1 nM; at CK1ε wild type enzyme, 140 nM.
The matching figures for `Cc1cc(CN2CCC(n3cnc(-c4ccc(F)cc4)c3-c3ccncn3)CC2)no1` [Example 29, 4-[4-(4-fluorophenyl)-1-{1-[(5-methylisoxazol-3-yl)methyl]piperidin-4-yl}-1H-imidazol-5-yl]pyrimidine]: 38.8 nM and 268 nM.
In the case of `Cn1nccc1CN1CCC(n2cnc(-c3ccc(F)cc3)c2-c2ccnc(N)n2)CC1` [Example 20, 4-[4-(4-fluorophenyl)-1-{1-[(1-methyl-1H-pyrazol-5-yl)methyl]piperidin-4-yl}-1H-imidazol-5-yl]pyrimidin-2-amine, trifluoroacetate salt], the IC50 on CK1δ turned out to be 42.8 nM; at CK1ε wild type enzyme, 244 nM.
The matching figures for `Cc1nc2ccccc2nc1CN1CCC(n2cnc(-c3ccc(F)cc3)c2-c2ccnc(N)n2)CC1` [Example 17, 4-[4-(4-fIuorophenyl)-1-{1-[(3-methylquinoxalin-2-yl)methyl]piperidin-4-yl}-1H-imidazol-5-yl]pyrimidin-2-amine, trifluoroacetate salt]: 32.1 nM and 144 nM.
As to `Nc1nccc(-c2c(-c3ccc(F)cc3)ncn2C2CCN(Cc3ccnnc3)CC2)n1` [Example 23, 4-{4-(4-fluorophenyl)-1-[1-(pyridazin-4-ylmethyl)piperidin-4-yl]-1H-imidazol-5-yl}pyrimidin-2-amine, trifluoroacetate salt], the IC50 at CK1δ came to 8.51 nM; at CK1ε wild type enzyme, 34.8 nM.
In the case of `Nc1nccc(-c2c(-c3ccc(F)cc3)ncn2C2CCN(Cc3cncs3)CC2)n1` [Example 19, 4-{4-(4-fluorophenyl)-1-[1-(1,3-thiazol-5-ylmethyl)piperidin-4-yl]-1H-imidazol-5-yl}pyrimidin-2-amine, trifluoroacetate salt], the 50% inhibitory concentration (IC50) was determined as 26.8 nM on CK1δ and 99.9 nM at CK1ε wild type enzyme.
For `COCCc1ncc(CN2CCC(n3cnc(-c4ccc(F)cc4)c3-c3ccncn3)C2)cn1` (stereo not drawn) [Example 42, 5-({3-[4-(4-fluorophenyl)-5-pyrimidin-4-yl-1H-imidazol-1-yl]pyrrolidin-1-yl}methyl)-2-(2-methoxyethyl)pyrimidine, trifluoroacetate salt] the same measures were 679 nM and 1530 nM.
As to `Nc1nccc(-c2c(-c3ccc(F)cc3)ncn2C2CCN(Cc3cncc4ccccc34)C2)n1` (stereo not drawn) [Example 36, 4-{4-(4-fluorophenyl)-1-[1-(isoquinolin-4-ylmethyl)pyrrolidin-3-yl]-1H-imidazol-5-yl}pyrimidin-2-amine], the IC50 on CK1δ came to 56.3 nM; on CK1ε wild type enzyme it was 140 nM.
The matching figures for `Fc1ccc(-c2ncn(C3CCN(Cc4ccon4)CC3)c2-c2ccncn2)cc1` [Example 6, 4-{4-(4-Fluorophenyl)-1-[1-(isoxazol-3-ylmethyl)piperidin-4-yl]-1H-imidazol-5-yl}pyrimidine, hydrochloride salt]: 24 nM and 126 nM.
In the case of `Cc1cnc(CN2CCC(n3cnc(-c4ccc(F)cc4)c3-c3ccnc(N)n3)C2)c(F)c1` (stereo not drawn) [Example 31, 4-[1-{1-[(3-fluoro-5-methylpyridin-2-yl)methyl]pyrrolidin-3-yl}-4-(4-fluorophenyl)-1H-imidazol-5-yl]pyrimidin-2-amine], the IC50 on CK1δ turned out to be 47.6 nM; on CK1ε wild type enzyme, 165 nM.
For `Nc1nccc(-c2c(-c3ccc(F)cc3)ncn2C2CCN(Cc3ccncc3)C2)n1` (stereo not drawn) [Example 34, 4-{4-(4-fluorophenyl)-1-[1-(pyridin-4-ylmethyl)pyrrolidin-3-yl]-1H-imidazol-5-yl}pyrimidin-2-amine] the same measures were 76.6 nM and 211 nM.
The matching figures for `CCc1csc(CN2CCC(n3cnc(-c4ccc(F)cc4)c3-c3ccnc(N)n3)CC2)n1` [Example 24, 4-[1-{1-[(4-ethyl-1,3-thiazol-2-yl)methyl]piperidin-4-yl}-4-(4-fluorophenyl)-1H-imidazol-5-yl]pyrimidin-2-amine, trifluoroacetate salt]: 83.7 nM and 382 nM.
`Cc1nc(-c2ccc(F)cc2)c(-c2ccncn2)n1C1CCN(Cc2ccon2)CC1` [Example 14, 4-{4-(4-Fluorophenyl)-1-[1-(isoxazol-3-ylmethyl)piperidin-4-yl]-2-methyl-1H-imidazol-5-yl}pyrimidine]: the IC50 was found to be 140 nM on CK1δ and 829 nM at CK1ε wild type enzyme.
The matching figures for `Nc1nccc(-c2c(-c3ccccc3)ncn2C2CCN(Cc3ccon3)CC2)n1` [Example 13, 4-{1-[1-(Isoxazol-3-ylmethyl)piperidin-4-yl]-4-phenyl-1H-imidazol-5-yl}pyrimidin-2-amine, hydrochloride salt]: 8.22 nM and 40.9 nM.
As to `Nc1nccc(-c2c(-c3ccc(F)cc3)ncn2C2CCN(Cc3ccc(C(F)(F)F)nc3)CC2)n1` [Example 18, 4-[4-(4-fluorophenyl)-1-(1-{[6-(trifluoromethyl)pyridin-3-yl]methyl}piperidin-4-yl)-1H-imidazol-5-yl]pyrimidin-2-amine, trifluoroacetate salt], the IC50 worked out at 80.7 nM at CK1δ and 394 nM on CK1ε wild type enzyme.
